{"source": "patent US8952024B2", "about": "“Herbicidal pyrimidone derivatives” (E I du Pont de Nemours and Company, priority 2009, dated 2015)", "experiment_in_all_cases": "Test B pre-/postemergence plant response", "format_in_all_cases": "in vivo", "key": {"[1]": {"system": "downy bromegrass (Bromus tectorum)", "outline": "(§1)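 Plants treated either at seeding (loam/sand soil) or postemergence at 2 to 18 cm height, using a surfactant-containing non-phytotoxic solvent formulation. Evaluation was visual after 13 to 15 days, 0 to 100 scale relative to controls.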"}, "[2]": {"system": "giant foxtail (Setaria faberii)", "outline": "as §1"}, "[3]": {"system": "goosegrass (Eleusine indica)", "outline": "as §1"}, "[4]": {"system": "green foxtail (Setaria viridis)", "outline": "as §1"}, "[5]": {"system": "johnsongrass (Sorghum halepense)", "outline": "as §1"}, "kochia (Kochia scoparia)": {"system": "kochia (Kochia scoparia)", "outline": "as §1"}, "[6]": {"system": "lambsquarters (Chenopodium album)", "outline": "as §1"}, "[7]": {"system": "large crabgrass (Digitaria sanguinalis)", "outline": "as §1"}, "[8]": {"system": "pigweed (Amaranthus retroflexus)", "outline": "as §1"}, "[9]": {"system": "velvetleaf (Abutilon theophrasti)", "outline": "as §1"}, "[10]": {"system": "wheat (Triticum aestivum)", "outline": "as §1"}, "[11]": {"system": "woolly cupgrass (Eriochloa villosa)", "outline": "as §1"}, "[12]": {"system": "yellow nutsedge (Cyperus esculentus)", "outline": "as §1"}, "[13]": {"conditions": "31 g ai/ha, postemergence, scale 0 to 100, 0 is no effect, 100 is complete control"}, "[14]": {"conditions": "62 g ai/ha, postemergence, 0 is no effect, 100 is complete control, 13 to 15 days"}, "[15]": {"conditions": "Postemergence, 125 g ai/ha, visual rating after 13 to 15 days, scale 0 (no effect) to 100 (complete control)"}, "[16]": {"conditions": "Postemergence, 250 g ai/ha, scale 0 to 100 (0 no effect, 100 complete control)"}, "[17]": {"conditions": "Preemergence, 31 g ai/ha, scale 0 to 100 (0 no effect, 100 complete control)"}, "[18]": {"conditions": "Preemergence, 62 g ai/ha, scale 0 to 100 (0 no effect, 100 complete control)"}, "[19]": {"conditions": "Preemergence, 125 g ai/ha, scale 0 to 100, 0 no effect, 100 complete control"}, "[20]": {"conditions": "Preemergence, 250 g ai/ha, 0 to 100 scale"}}, "data": [{"smiles": "CCCn1c(-c2cccs2)ncc(C(=O)C2=C(O)CCCC2=O)c1=O", "note": "[Compound 77]", "values": [{"measurement": "Plant response rating, Bromegrass, Downy", "setting": "[1]; [13]", "result": 0}, {"measurement": "Bromegrass, Downy plant response rating (0 to 100 scale)", "setting": "[1]; [14]", "result": 5}, {"measurement": "Plant response rating, Bromegrass, Downy", "setting": "[1]; [15]", "result": 5}, {"measurement": "Plant response rating, Bromegrass, Downy", "setting": "[1]; [16]", "result": 5}, {"measurement": "Plant response rating, Bromegrass, Downy", "setting": "[1]; [17]", "result": 0}, {"measurement": "Plant response rating, Bromegrass, Downy", "setting": "[1]; [18]", "result": 0}, {"measurement": "Plant response rating, Bromegrass, Downy", "setting": "[1]; [19]", "result": 0}, {"measurement": "Bromegrass, Downy plant response rating", "setting": "[1]; [20]", "result": 0}, {"measurement": "Plant response rating, Foxtail, Giant", "setting": "[2]; [13]", "result": 65}, {"measurement": "Foxtail, Giant plant response rating (0 to 100 scale)", "setting": "[2]; [14]", "result": 75}, {"measurement": "Plant response rating, Foxtail, Giant", "setting": "[2]; [15]", "result": 75}, {"measurement": "Plant response rating, Foxtail, Giant", "setting": "[2]; [16]", "result": 80}, {"measurement": "Plant response rating, Foxtail, Giant", "setting": "[2]; [17]", "result": 0}, {"measurement": "Plant response rating, Foxtail, Giant", "setting": "[2]; [18]", "result": 0}, {"measurement": "Plant response rating, Foxtail, Giant", "setting": "[2]; [19]", "result": 5}, {"measurement": "Foxtail, Giant plant response rating", "setting": "[2]; [20]", "result": 45}, {"measurement": "Plant response rating, Goosegrass", "setting": "[3]; [13]", "result": 65}, {"measurement": "Goosegrass plant response rating (0 to 100 scale)", "setting": "[3]; [14]", "result": 75}, {"measurement": "Plant response rating, Goosegrass", "setting": "[3]; [15]", "result": 75}, {"measurement": "Plant response rating, Goosegrass", "setting": "[3]; [16]", "result": 85}, {"measurement": "Plant response rating, Goosegrass", "setting": "[3]; [17]", "result": 55}, {"measurement": "Plant response rating, Goosegrass", "setting": "[3]; [18]", "result": 95}, {"measurement": "Plant response rating, Goosegrass", "setting": "[3]; [19]", "result": 98}, {"measurement": "Goosegrass plant response rating", "setting": "[3]; [20]", "result": 98}, {"measurement": "Plant response rating, Foxtail, Green", "setting": "[4]; [13]", "result": 40}, {"measurement": "Foxtail, Green plant response rating (0 to 100 scale)", "setting": "[4]; [14]", "result": 80}, {"measurement": "Plant response rating, Foxtail, Green", "setting": "[4]; [15]", "result": 80}, {"measurement": "Plant response rating, Foxtail, Green", "setting": "[4]; [16]", "result": 80}, {"measurement": "Plant response rating, Foxtail, Green", "setting": "[4]; [17]", "result": 0}, {"measurement": "Plant response rating, Foxtail, Green", "setting": "[4]; [18]", "result": 0}, {"measurement": "Plant response rating, Foxtail, Green", "setting": "[4]; [19]", "result": 0}, {"measurement": "Foxtail, Green plant response rating", "setting": "[4]; [20]", "result": 15}, {"measurement": "Plant response rating, Johnsongrass", "setting": "[5]; [13]", "result": 0}, {"measurement": "Johnsongrass plant response rating (0 to 100 scale)", "setting": "[5]; [14]", "result": 0}, {"measurement": "Plant response rating, Johnsongrass", "setting": "[5]; [15]", "result": 10}, {"measurement": "Plant response rating, Johnsongrass", "setting": "[5]; [16]", "result": 10}, {"measurement": "Plant response rating, Johnsongrass", "setting": "[5]; [17]", "result": 0}, {"measurement": "Plant response rating, Johnsongrass", "setting": "[5]; [18]", "result": 0}, {"measurement": "Plant response rating, Johnsongrass", "setting": "[5]; [19]", "result": 0}, {"measurement": "Johnsongrass plant response rating", "setting": "[5]; [20]", "result": 0}, {"measurement": "Plant response rating, Kochia", "setting": "kochia (Kochia scoparia); [13]", "result": 75}, {"measurement": "Kochia plant response rating (0 to 100 scale)", "setting": "kochia (Kochia scoparia); [14]", "result": 80}, {"measurement": "Plant response rating, Kochia", "setting": "kochia (Kochia scoparia); [15]", "result": 95}, {"measurement": "Plant response rating, Kochia", "setting": "kochia (Kochia scoparia); [16]", "result": 95}, {"measurement": "Plant response rating, Kochia", "setting": "kochia (Kochia scoparia); [17]", "result": 85}, {"measurement": "Plant response rating, Kochia", "setting": "kochia (Kochia scoparia); [18]", "result": 90}, {"measurement": "Plant response rating, Kochia", "setting": "kochia (Kochia scoparia); [19]", "result": 90}, {"measurement": "Kochia plant response rating", "setting": "kochia (Kochia scoparia); [20]", "result": 95}, {"measurement": "Plant response rating, Lambsquarters", "setting": "[6]; [13]", "result": 95}, {"measurement": "Lambsquarters plant response rating (0 to 100 scale)", "setting": "[6]; [14]", "result": 98}, {"measurement": "Plant response rating, Lambsquarters", "setting": "[6]; [15]", "result": 98}, {"measurement": "Plant response rating, Lambsquarters", "setting": "[6]; [16]", "result": 98}, {"measurement": "Plant response rating, Lambsquarters", "setting": "[6]; [17]", "result": 98}, {"measurement": "Plant response rating, Lambsquarters", "setting": "[6]; [18]", "result": 98}, {"measurement": "Plant response rating, Lambsquarters", "setting": "[6]; [19]", "result": 100}, {"measurement": "Lambsquarters plant response rating", "setting": "[6]; [20]", "result": 100}, {"measurement": "Plant response rating, Crabgrass, Large", "setting": "[7]; [13]", "result": 55}, {"measurement": "Crabgrass, Large plant response rating (0 to 100 scale)", "setting": "[7]; [14]", "result": 60}, {"measurement": "Plant response rating, Crabgrass, Large", "setting": "[7]; [15]", "result": 75}, {"measurement": "Plant response rating, Crabgrass, Large", "setting": "[7]; [16]", "result": 85}, {"measurement": "Plant response rating, Crabgrass, Large", "setting": "[7]; [17]", "result": 70}, {"measurement": "Plant response rating, Crabgrass, Large", "setting": "[7]; [18]", "result": 98}, {"measurement": "Plant response rating, Crabgrass, Large", "setting": "[7]; [19]", "result": 98}, {"measurement": "Crabgrass, Large plant response rating", "setting": "[7]; [20]", "result": 100}, {"measurement": "Plant response rating, Pigweed", "setting": "[8]; [13]", "result": 98}, {"measurement": "Pigweed plant response rating (0 to 100 scale)", "setting": "[8]; [14]", "result": 98}, {"measurement": "Plant response rating, Pigweed", "setting": "[8]; [15]", "result": 100}, {"measurement": "Plant response rating, Pigweed", "setting": "[8]; [16]", "result": 100}, {"measurement": "Plant response rating, Pigweed", "setting": "[8]; [17]", "result": 100}, {"measurement": "Plant response rating, Pigweed", "setting": "[8]; [18]", "result": 100}, {"measurement": "Plant response rating, Pigweed", "setting": "[8]; [19]", "result": 100}, {"measurement": "Pigweed plant response rating", "setting": "[8]; [20]", "result": 100}, {"measurement": "Plant response rating, Velvetleaf", "setting": "[9]; [13]", "result": 90}, {"measurement": "Velvetleaf plant response rating (0 to 100 scale)", "setting": "[9]; [14]", "result": 98}, {"measurement": "Plant response rating, Velvetleaf", "setting": "[9]; [15]", "result": 98}, {"measurement": "Plant response rating, Velvetleaf", "setting": "[9]; [16]", "result": 100}, {"measurement": "Plant response rating, Velvetleaf", "setting": "[9]; [17]", "result": 95}, {"measurement": "Plant response rating, Velvetleaf", "setting": "[9]; [18]", "result": 100}, {"measurement": "Plant response rating, Velvetleaf", "setting": "[9]; [19]", "result": 100}, {"measurement": "Velvetleaf plant response rating", "setting": "[9]; [20]", "result": 100}, {"measurement": "Plant response rating, Wheat", "setting": "[10]; [13]", "result": 0}, {"measurement": "Wheat plant response rating (0 to 100 scale)", "setting": "[10]; [14]", "result": 5}, {"measurement": "Plant response rating, Wheat", "setting": "[10]; [15]", "result": 10}, {"measurement": "Plant response rating, Wheat", "setting": "[10]; [16]", "result": 10}, {"measurement": "Plant response rating, Wheat", "setting": "[10]; [17]", "result": 0}, {"measurement": "Plant response rating, Wheat", "setting": "[10]; [18]", "result": 0}, {"measurement": "Plant response rating, Wheat", "setting": "[10]; [19]", "result": 0}, {"measurement": "Wheat plant response rating", "setting": "[10]; [20]", "result": 0}, {"measurement": "Plant response rating, Cupgrass, Woolly", "setting": "[11]; [13]", "result": 20}, {"measurement": "Cupgrass, Woolly plant response rating (0 to 100 scale)", "setting": "[11]; [14]", "result": 20}, {"measurement": "Plant response rating, Cupgrass, Woolly", "setting": "[11]; [15]", "result": 35}, {"measurement": "Plant response rating, Cupgrass, Woolly", "setting": "[11]; [16]", "result": 40}, {"measurement": "Plant response rating, Cupgrass, Woolly", "setting": "[11]; [17]", "result": 0}, {"measurement": "Plant response rating, Cupgrass, Woolly", "setting": "[11]; [18]", "result": 0}, {"measurement": "Plant response rating, Cupgrass, Woolly", "setting": "[11]; [19]", "result": 0}, {"measurement": "Cupgrass, Woolly plant response rating", "setting": "[11]; [20]", "result": 0}, {"measurement": "Plant response rating, Nutsedge, Yellow", "setting": "[12]; [13]", "result": 45}, {"measurement": "Nutsedge, Yellow plant response rating (0 to 100 scale)", "setting": "[12]; [14]", "result": 60}, {"measurement": "Plant response rating, Nutsedge, Yellow", "setting": "[12]; [15]", "result": 70}, {"measurement": "Plant response rating, Nutsedge, Yellow", "setting": "[12]; [16]", "result": 80}, {"measurement": "Plant response rating, Nutsedge, Yellow", "setting": "[12]; [17]", "result": 75}, {"measurement": "Plant response rating, Nutsedge, Yellow", "setting": "[12]; [18]", "result": 80}, {"measurement": "Plant response rating, Nutsedge, Yellow", "setting": "[12]; [19]", "result": 90}, {"measurement": "Nutsedge, Yellow plant response rating", "setting": "[12]; [20]", "result": 90}]}]}
